One may read the pIC50 as the negative decadic logarithm of the IC50, by convention in mol/L.

Each structure is given as a SMILES string. pIC50: −log10 of the molar value.

The test deals with Plasmodium falciparum. Nature of the test: Antiplasmodial activity against Plasmodium falciparum F32-Tanzania after 48 hrs.
Take `C=Cc1cccc2c3cc4c(cc3c(=O)n(CC)c12)OCO4`: the pIC50 is less than 4.00. On to `C=Cc1cccc2c1N(C)Cc1cc(OC(=O)CCCCCCCCCCC)c(OC(=O)CCCCCCCCCCC)cc1-2`, for which the negative logarithm of the IC50 (pIC50) is 4.33. Compound `CC(=O)Oc1cc2c(cc1OC(C)=O)[C@@H]1[C@H](O)[C@@H](OC(C)=O)C=C3CCN(C2)[C@H]31` showed a pIC50 of 5.08. `CC(=O)O[C@H]1[C@H]2c3cc4c(cc3C(=O)N3CCC(=C[C@@H]1OC(C)=O)[C@H]23)OCO4` gave a pIC50 of less than 4.00. As for `C=Cc1cccc2c1N(C)Cc1cc(OC(C)=O)c(OC(C)=O)cc1-2`, the pIC50 was 6.05.

Regarding `C=Cc1cccc2c1N(C)Cc1cc(OC)c(OC)cc1-2`, the pIC50 was 4.91.

For the compound `CC(=O)Oc1cc2c3c(c1)c1cc4c(cc1c(=O)n3CC2)OCO4`, the negative-log IC50 (pIC50) was 5.04. In turn, `C=Cc1cccc2c1N(CCCC)Cc1cc(OC(C)=O)c(OC(C)=O)cc1-2` showed a pIC50 of 6.10. `CC(=O)O[C@@H]1[C@@H](OC(C)=O)[C@H](O)[C@@]2(O)CCN3C(=O)c4cc5c(cc4[C@H]1[C@H]32)OCO5` had a pIC50 of less than 4.00. As for `CC(=O)O[C@H]1[C@H]2c3cc4c(cc3C(=O)N3CCC(=C[C@@H]1O)[C@H]23)OCO4`, the pIC50 was less than 4.00.

The compound `C=Cc1cccc2c3cc4c(cc3c(=O)n(CCCC)c12)OCO4` showed a pIC50 of less than 4.00.

Turning to `CCC(C)C(=O)O[C@H]1[C@H]2c3cc4c(cc3CN3CCC(=C[C@@H]1OC(=O)C(C)CC)[C@H]23)OCO4` (some centres not stated), the pIC50 was 6.22.

Take `C=Cc1cccc2c1N(CCCCCCCCCCC)Cc1cc3c(cc1-2)OCO3`: the pIC50 is 5.13. For the compound `C=Cc1cccc2c1N(C)Cc1cc(O)c(O)cc1-2`, the pIC50 was 5.96. As for `C=Cc1cccc2c1N(CCCC)Cc1cc(O)c(O)cc1-2`, the figure is less than 4.00.

`C=Cc1cccc2c3cc4c(cc3c(=O)n(C)c12)OCO4` gave a pIC50 of less than 4.00.

Take `C=Cc1cccc2c1N(CCCC)Cc1cc3c(cc1-2)OCO3`: the negative logarithm of the IC50 (pIC50) was 5.01. As for `CCc1cccc2c1N(C)Cc1cc3c(cc1-2)OCO3`, the figure is less than 4.00. Take `C=Cc1cccc2c1N(C)Cc1cc3c(cc1-2)OCO3`: the pIC50 was 4.95.

As for `CCCCN1Cc2cc3c(cc2-c2cccc(CC)c21)OCO3`, the pIC50 is 5.13. As for `CC(=O)O[C@H]1[C@H]2c3cc4c(cc3CN3CCC(=C[C@@H]1O)[C@H]23)OCO4`, the figure is 6.05; as for `C=Cc1cccc2c1N(CC)Cc1cc3c(cc1-2)OCO3`, 4.07; as for `CC(=O)O[C@H]1[C@H]2c3cc4c(cc3CN3CCC(=C[C@@H]1OC(C)=O)[C@H]23)OCO4`, 6.59. Regarding `CCC(=O)O[C@H]1[C@H]2c3cc4c(cc3CN3CCC(=C[C@@H]1OC(=O)CC)[C@H]23)OCO4`, the pIC50 is 5.57. For the compound `CC(=O)O[C@H]1[C@H]2c3cc4c(cc3CN3CC[C@@H](C[C@@H]1OC(C)=O)[C@H]23)OCO4`, the pIC50 is 4.46. As for `O=C1C=C2CCN3Cc4cc5c(cc4[C@H]([C@@H]1O)[C@@H]23)OCO5`, the figure is 4.83; as for `O[C@H]1[C@H]2c3cc4c(cc3CN3CCC(=C[C@@H]1O)[C@H]23)OCO4` [LYCORINE], 6.89.
